Like-named read-outs stand apart in the source and are kept apart here.
Assays:
[1] = test system: WM1366; test: Colony growth assay, WM1366; format: cell-based; conditions: Homo sapiens, WM1366, RAS Q61L
Description: (§1) FIG. 1. […] All other lines are BRAF wild-type and have activating mutations in RAS.
(§2) While oncogene-induced senescence due to overexpressed mutant RAS is an important tumor suppression mechanism, multiple variants of senescence exist (Ito, Y., et al. Trends Cell Biol 27:820-832 (2017); Lasry, A. & Ben-Neriah, Y. Trends Immunol 36:217-28 (2015); Ewald, J. A., et al. J Natl Cancer Inst 102:1536-46 (2010); Mooi, W. J. & Peeper, D.S. N Engl J Med. 355:1037-46 (2006)). With this in mind, experiments were conducted to determine whether paradoxical ERK activation, as driven by BRAFi exposure in the context of RAS-mutant cancers, could cause elevation of ERK pathway signaling to the point of causing senescence-like growth arrest akin to oncogene-induced senescence. To determine the effects of BRAFi treatment on RAS-mutant melanomas, a panel of four BRAFi were screened against eight RAS-mutant melanoma cell lines. the FDA-approved BRAFi vemurafenib, dabrafenib, encorafenib (Dummer, R., et al. J Clin Oncol 31(2013)), and the ‘paradox-breaker PLX8394, which was designed to elicit no paradoxical ERK activation (Zhang, C., et al. Nature 526:583-6 (2015)) were tested.

[2] = test system: RAS-mutant melanoma cell lines; test: BRAFi screen against panel of RAS-mutant melanoma cell lines; format: cell-based, human; conditions: for IC50: Homo sapiens, four 'BRAFi sensitive' RAS-mutant cell lines, read-out: IC50, growth inhibition
Description: as §1, §2

[3] = test system: CP66; test: Colony growth assay, CP66; format: cell-based; conditions: Homo sapiens, CP66, RAS Q61K
Description: as §1, §2

[4] = test system: GAK; test: Colony growth assay, GAK; format: cell-based; conditions: Homo sapiens
Description: as §1, §2

[5] = test system: 501mel; test: Colony growth assay, 501mel; format: cell-based; conditions: Homo sapiens, RAS G12D
Description: as §1, §2

[6] = test system: A375; test: Colony growth assay, A375 (BRAF mutant positive control); format: cell-based; conditions: Homo sapiens, A-375
Description: as §1, §2

[7] = test system: Sk-mel-119; test: Colony growth assay, Sk-mel-119; format: cell-based; conditions: Homo sapiens, Sk-mel-119, RAS Q61R
Description: as §1, §2

[8] = test system: ICP 298; test: Colony growth assay, ICP 298; format: cell-based; conditions: Homo sapiens, ICP 298, RAS Q61L
Description: as §1, §2

[9] = test system: IPC 298 and 501mel cell line xenografts; test: IPC 298 and 501mel cell line xenografts in mice; format: in vivo, mouse; conditions: 3.5 mg/kg daily; NOD/SCID gamma or athymic nude mice
Method: FIG. 4. […] (A) IPC 298 cell line xenografts were established in NOD/SCID gamma mice by co-injecting 1 million IPC 298 cells subcutaneously. Daily treatment with vehicle (n=20) or 3.5 mg/kg dabrafenib (n=20) was initiated at ‘Day 0,’ or 7 days post injection. Tumor volume was tracked by caliper measurement, calculated using V=½lw2. Student's t-test compares differences in tumor volumes at sacrifice in both conditions versus vehicle control (B) Representative image of mice from (A) at experimental endpoint. (C) Phospho-ERK western-blotting of tumor lysates from a short-term pharmacodynamic experiment from IPC 298 lysates harvested from mice treated orally with vehicle or 3.5 mg/kg dabrafenib for 5 days. (D) 501mel cell line xenografts were established in athymic nude mice by co-injecting 4 million 501mel cells mixed with 1 million normal dermal fibroblasts (NDF) per site. Mice were treated with vehicle (n=11) or 3.5 mg/kg dabrafenib (n=10), 12 days post injection. As engraftment with 501mel/NDF is inefficient, only tumors with diameters >3 mm at treatment initiation are detailed here. Student's t-test compares differences in tumor volumes at sacrifice in both conditions versus vehicle control. (E) Representative image of mice from (D) at experimental endpoint. […] Quantitative data represent at least three independent experiments. […]

[10] = test system: Sk-mel-2; test: Colony growth assay, Sk-mel-2; format: cell-based; conditions: Homo sapiens, Sk-mel-2, RAS Q61R
Description: as §1, §2

[11] = cited from earlier work; for induction of cutaneous squamous cell carcinoma (cuSCC), patients: treated patients, averaged across multiple studies
[12] = test system: IL-6 secretion, 501 MEL melanoma cell lines; test: IL-6 secreted in the media of 501 MEL cells; format: cell-based, human; conditions: acute 24 hours or chronic 7 days, vs control-treated
Description: Substantial increases in the secretion of this canonical senescence-associated cytokine are reliably measured in all settings, up to 3-fold in magnitude, showing essential features of the ERK-hyperactivation mediated senescence response.

[13] = test system: NRASQ61R-mutant melanoma cells (C57BL/6); test: Transplanted NRASQ61R-mutant melanoma model in C57BL/6 mice; format: in vivo, mouse; conditions: dabrafenib 3.5 mg/kg/day, RMP1-14 thrice weekly, start day 7
Method: FIG. 11. Transplanted NRASQ61R-mutant melanoma cells (C57BL/6) regress when dabrafenib-induced PEASA is combined with anti-PD1 immunotherapy. 1 million melanoma cells were injected in both flanks of C57BL/6 mice and therapy started at 7 days. […] mice per condition across 2 independent trials; mean tumor volume +/−SEM.
Because senescence is associated with a specific inflammatory gene expression signature, RNAseq was used to characterize responsive NRAS-mutant cell lines (IPC298, SK-MEL-119) following BRAFi exposure.

[14] = test system: MelJUSO; test: Colony growth assay, MelJUSO; format: cell-based; conditions: Homo sapiens, MEL-JUSO, RAS Q61L (HRASG13D)
Description: as §1, §2

[15] = in vivo; cited from earlier work
[16] = GAK, RAS Q61K, colony growth, read-out: IC50
[17] = A375, RAS WT (BRAFV600E), colony growth, read-out: IC50

IC50 [6, 17] [nM]	SMILES	IC50 [1] [nM]	IC50 [2] [nM]	IC50 [3] [nM]	IC50 [4, 16] [nM]	IC50 [5] [nM]	IC50 [6] [nM]	IC50 [7] [nM]	IC50 [8] [nM]	tumor growth in vivo [9]	IC50 [10] [nM]	induction of cutaneous squamous cell carcinoma (cuSCC), patients [11] [%]	increase in secretion of IL-6 [12]	tumor response (tumor volume) [13]	IC50 [14] [nM]	plasma elimination half-life [15]	activity against RAS mutant cell lines ([2]; RAS mutant cell lines)	IC50 [4] [nM]	cuSCC harboring activating RAS mutations ([11]; cuSCC from treated patients, 10-20% in sporadic cuSCC)
	CC(C)(C)c1nc(-c2cccc(NS(=O)(=O)c3c(F)cccc3F)c2F)c(-c2ccnc(N)n2)s1 [Dabrafenib]	> 5000	< 100	1000	700	21	2.5	1.8	31	prevents RAS-mutant tumor growth	240	6	up to 3 fold	partial responses, but progressive disease	100				
0.71	COC(=O)N[C@@H](C)CNc1nccc(-c2cn(C(C)C)nc2-c2cc(Cl)cc(NS(C)(=O)=O)c2F)n1 [Encorafenib]	> 2000	< 100	520	1600	7.5		0.49	0.9		550				26	approximately 6 hours			
180	O=C(c1c(F)ccc(NS(=O)(=O)N2CC[C@@H](F)C2)c1F)c1c[nH]c2ncc(-c3cnc(C4CC4)nc3)cc12 [PLX8394]	> 1000		> 1000	> 1000	> 1000		> 1000	> 1000		> 1000				> 1000		never showed activity		

SMILES	IC50 [6, 17] [nM]	IC50 [1] [nM]	IC50 [2] [nM]	IC50 [3] [nM]	IC50 [4, 16] [nM]	IC50 [5] [nM]	IC50 [6] [nM]	IC50 [7] [nM]	IC50 [8] [nM]	tumor growth in vivo [9]	IC50 [10] [nM]	induction of cutaneous squamous cell carcinoma (cuSCC), patients [11] [%]	increase in secretion of IL-6 [12]	tumor response (tumor volume) [13]	IC50 [14] [nM]	plasma elimination half-life [15]	activity against RAS mutant cell lines ([2]; RAS mutant cell lines)	IC50 [4] [nM]	cuSCC harboring activating RAS mutations ([11]; cuSCC from treated patients, 10-20% in sporadic cuSCC)
CCCS(=O)(=O)Nc1ccc(F)c(C(=O)c2c[nH]c3ncc(-c4ccc(Cl)cc4)cc23)c1F [Vemurafenib]	68	> 6600		> 6600		3000		540	380		2500	22			> 6600			5300	Approximately 60%

Source: patent US20220288201A1, “COMBINATION THERAPY FOR TREATING RAS-MUTANT CANCERS” (H. Lee Moffitt Cancer and Research Institute, Inc., priority 2019, published 2022)
